These results are taken from patent publication US20240287022A1 (Merck Sharp & Dohme LLC, priority 2021, published 2024).

In general, EC50 refers to the midpoint of the concentration-response curve.

For this assay, the target named is recombinant IL4I1 (Homo sapiens (Human), UniProt Q96RQ9). Nature of the assay: IL4I1 Enzymatic Assay (Amplex Red/HRP coupled H2O2 detection). It is filed as biochemical. The settings on record: 1 nM IL4I1, 1 mM each Phe/Tyr/Trp, four-hour pre-incubation, 120 minutes reaction, top compound concentration of 10000 nM. On the procedure: Interleukin 4 inducible protein 1 (IL4I1) is an L-amino oxidase that catalyzes the oxidation of aromatic residues (Phe, Trp and Tyr): L-amino acid+H2O+O2→2-oxo acid+NH3+H2O2. Equal molar of H2O2 and the corresponding alpha-ketoacid are produced when IL4I1 and substrate are added. In this assay, the hydrogen peroxide generated by IL4I1 are then detected through a coupled reaction with Amplex Red (10-acetyl-3,7-dihydroxyphenoxazine) and […] (HRP) to produce Resorufin product that could be detected in the form of fluorescence signals. The assessment of the inhibitory effect of small molecules (EC50) on IL4I1 is measured by the effectiveness of the compounds to inhibit the production of H2O2.
recombinant IL4I1, sequence (Q96RQ9 22-567): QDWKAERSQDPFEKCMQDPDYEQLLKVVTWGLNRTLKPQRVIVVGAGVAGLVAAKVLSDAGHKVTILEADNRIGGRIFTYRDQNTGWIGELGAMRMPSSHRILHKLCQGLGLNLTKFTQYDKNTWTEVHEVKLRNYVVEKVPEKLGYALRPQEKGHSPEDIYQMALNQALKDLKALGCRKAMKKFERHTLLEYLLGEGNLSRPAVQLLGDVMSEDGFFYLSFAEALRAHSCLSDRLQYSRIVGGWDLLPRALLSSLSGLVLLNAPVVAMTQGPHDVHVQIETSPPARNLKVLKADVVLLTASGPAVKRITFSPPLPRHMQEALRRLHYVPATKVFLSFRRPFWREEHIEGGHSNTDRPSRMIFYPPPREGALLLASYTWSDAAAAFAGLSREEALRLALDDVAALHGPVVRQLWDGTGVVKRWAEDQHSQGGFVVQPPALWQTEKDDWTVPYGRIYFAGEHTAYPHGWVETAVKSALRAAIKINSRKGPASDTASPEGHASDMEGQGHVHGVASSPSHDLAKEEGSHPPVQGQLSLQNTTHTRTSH
Using this assay, the potency (EC50) of each compound was determined from a ten-point (1:3 serial dilution; top compound concentration of 10000 nM) titration curve using the following outlined procedure. To each well of a black flat-bottom Greiner (Cat #781076) 384 well-plate, 25 nL of compound (0.1% DMSO in final assay volume of 25 μL) was dispensed, followed by the addition of 12.5 μL of 1× assay buffer (50 mM Hepes 7.0 and 0.005% Tween20 (Sigma, Cat #P8341; low peroxide grade)) containing 2 nM of recombinant IL4I1 (R&D Systems, Cat #5684-AO-020). Plates were placed in an ambient temperature humidified chamber for a four-hour pre-incubation with compound. Subsequently, each reaction was initiated by the addition of 12.5 μL 1× assay buffer containing 2 mM of each aromatic amino acids (Phe/Tyr/Trp), 0.1 mM Amplex Red and 2 U/mL of HRP. The final reaction in each well of 25 μL consists of 1 nM of IL4I1, 1 mM of each residues (Phe, Tyr and Trp), 0.05 mM Amplex Red and 1 U/mL of HRP. It should be noted that the concentrations of Amplex Red and HRP used here are in excess such that the conversion of H2O2 to Resorufin product occurs instantaneously and non-rate limiting. Reactions were allowed to proceed for 120 minutes followed by fluorescence readout on a Spectramax with the following set parameters: 544 nm excitation/590 nm emission, 570 nm cutoff (EnVision is an alternative reader). Dose-response curves were generated by plotting percent effect (% product conversion; Y-axis) vs. Log10 compound concentrations (X-axis). EC50 values were calculated using a non-linear regression, four-parameters sigmoidal dose-response model.
Turning to `O=c1[nH]c2ccccc2cc1Cc1cnc(N2CCCC2)s1` [Example 139, 3-((2-(pyrrolidin-1-yl)thiazol-5-yl)methyl)quinolin-2(1H)-one], the half-maximal effective concentration (EC50) worked out at 8.5 nM.
For the compound `CC1(CO)CN(c2ccc(Cc3cc4ccccc4[nH]c3=O)cn2)C(=O)O1` (racemic) [Example 50, rac-5-(hydroxymethyl)-5-methyl-3-(5-((2-oxo-1,2-dihydroquinolin-3-yl)methyl)pyridin-2-yl)oxazolidin-2-one], the EC50 came out at 18.9 nM.
With `Cc1c(Cc2cc3ccccc3[nH]c2=O)cnn1C` [Example 109, 3-((1,5-dimethyl-1H-pyrazol-4-yl)methyl)quinolin-2(1H)-one], the EC50 worked out at 39.9 nM.
Turning to `N#CC1(c2ccc(Cc3cc4ccccc4[nH]c3=O)cc2)CCOCC1` [Example 107, 4-(4-((2-oxo-1,2-dihydroquinolin-3-yl)methyl)phenyl)tetrahydro-2H-pyran-4-carbonitrile], the EC50 was 3.2 nM.
Regarding `CNCc1cccc2cc(Cc3cccc(OC(F)(F)F)c3)c(=O)[nH]c12` [Example 180, 8-((methylamino)methyl)-3-(3-(trifluoromethoxy)benzyl)quinolin-2(1H)-one], the EC50 came to 105 nM.
Turning to `O=c1[nH]c2ccc(Cc3cc4ccccc4[nH]c3=O)cc2o1` [Example 121, 6-((2-oxo-1,2-dihydroquinolin-3-yl)methyl)benzo[d]oxazol-2(3H)-one], the EC50 was 0.9 nM.
In the case of `O=c1[nH]c2ccccc2cc1Cc1nnc(-c2cc(Cl)ccc2Cl)o1` [Example 11, 3-((5-(2,5-dichlorophenyl)-1,3,4-oxadiazol-2-yl)methyl)quinolin-2(1H)-one] it was 2.2 nM.
For `O=c1[nH]c2ccncc2cc1Cc1ccc2ccccc2c1` [Example 115, 3-(naphthalen-2-ylmethyl)-1,6-naphthyridin-2(1H)-one], the 50% effective concentration (EC50) came to 1.4 nM.
In the case of `O=c1[nH]c2ccccc2cc1Cc1cnn2ncccc12` [Example 158, 3-(pyrazolo[1,5-b]pyridazin-3-ylmethyl)quinolin-2(1H)-one] it was 60.2 nM; in that of `Cn1c(=O)c(CC2CC2c2ccccc2)cc2ccccc21` (stereo not shown) [Example 175, 1-Methyl-3-((2-phenylcyclopropyl)methyl)quinolin-2(1H)-one], 7.7 nM.
With `COC(=O)NCc1nnc(Cc2cc3ccccc3[nH]c2=O)o1` [Example 43, methyl ((5-((2-oxo-1,2-dihydroquinolin-3-yl)methyl)-1,3,4-oxadiazol-2-yl)methyl)carbamate] the figure was 588 nM; with `CC1(O)CC(c2ccc(Cc3cc4cnccc4[nH]c3=O)cc2)C1` (stereo not shown) [compound 162, 3-(4-(3-hydroxy-3-methylcyclobutyl)benzyl)-1,6-naphthyridin-2(1H)-one], 6.8 nM; with `CC1(C)CN(c2ccc(Cc3cc4ccccc4[nH]c3=O)cn2)C(=O)O1` [Example 52, 5,5-dimethyl-3-(5-((2-oxo-1,2-dihydroquinolin-3-yl)methyl)pyridin-2-yl)oxazolidin-2-one], 10.7 nM.
`O=C1COc2c(Cc3cc4cccc5c4n(c3=O)CCC5)cccc2N1` [Example 149, 8-((5-oxo-2,3-dihydro-1H,5H-pyrido[3,2,1-ij]quinolin-6-yl)methyl)-2H-benzo[b][1,4]oxazin-3(4H)-one]: the EC50 came to 150 nM.
As for `COc1cc(CNS(C)(=O)=O)ccc1Cc1cc2ccccc2[nH]c1=O` [Example 74, N-(3-methoxy-4-((2-oxo-1,2-dihydroquinolin-3-yl)methyl)benzyl)methanesulfonamide], the EC50 turned out to be 6.9 nM.
In the case of `Cc1noc(C(C)C)c1-c1nnc(Cc2cc3ccccc3[nH]c2=O)o1` [Example 15, 3-((5-(5-isopropyl-3-methylisoxazol-4-yl)-1,3,4-oxadiazol-2-yl)methyl)quinolin-2(1H)-one] it was 13.7 nM; in that of `CC(c1nnc(Cc2cc3ccccc3[nH]c2=O)o1)C1CC1` (racemic) [Example 19, rac-3-((5-(1-cyclopropylethyl)-1,3,4-oxadiazol-2-yl)methyl)quinolin-2(1H)-one], 125 nM.
With `O=C1COc2c(F)cc(Cc3cc4ccccc4[nH]c3=O)cc2N1` [Example 176, 8-Fluoro-6-((2-oxo-1,2-dihydroquinolin-3-yl)methyl)-2H-benzo[b][1,4]oxazin-3(4H)-one] the figure was 1.4 nM.
Take `O=c1[nH]c2ccccc2cc1Cc1ccc2nn[nH]c2c1` [Example 132, 3-((1H-benzo[d][1,2,3]triazol-6-yl)methyl)quinolin-2(1H)-one]: the concentration giving a half-maximal response (EC50) is 18.6 nM.
Regarding `CC1(c2nnc(Cc3cc4ccccc4[nH]c3=O)o2)CC1` [Example 42, 3-((5-(1-methylcyclopropyl)-1,3,4-oxadiazol-2-yl)methyl)quinolin-2(1H)-one], the EC50 was 21 nM.
Take `O=c1[nH]c2ccccc2cc1Cc1cnn2c1CCC2` [Example 135, 3-((5,6-dihydro-4H-pyrrolo[1,2-b]pyrazol-3-yl)methyl)quinolin-2(1H)-one]: the EC50 stood at 11.3 nM.
With `NS(=O)(=O)c1cccc(Cc2cc3cc(F)ccc3[nH]c2=O)c1` [Example 120, 3-((6-fluoro-2-oxo-1,2-dihydroquinolin-3-yl)methyl)benzenesulfonamide] the figure was 3.6 nM; with `O=C1CCc2cc(Cc3cc4cc(F)ccc4[nH]c3=O)ccc2N1` [Example 123, 6-fluoro-3-((2-oxo-1,2,3,4-tetrahydroquinolin-6-yl)methyl)quinolin-2(1H)-one], 3.7 nM.
In the case of `O=c1[nH]c2ccccc2cc1Cc1nnc(CC2CC2)o1` [Example 27, 3-((5-(cyclopropylmethyl)-1,3,4-oxadiazol-2-yl)methyl)quinolin-2(1H)-one] it was 70.3 nM.
With `O=c1[nH]c2ccccc2cc1Cc1nnc(-c2cnsc2)o1` [Example 30, 3-((5-(isothiazol-4-yl)-1,3,4-oxadiazol-2-yl)methyl)quinolin-2(1H)-one] the figure was 696 nM.
Turning to `O=C1NCCc2cc(Cc3cc4ccccc4[nH]c3=O)ccc21` [Example 78, 3-((1-oxo-1,2,3,4-tetrahydroisoquinolin-6-yl)methyl)quinolin-2(1H)-one], the EC50 was 10.7 nM.
Take `O=c1[nH]c2ccccc2cc1Cc1nnc(-c2ccccc2)o1` [Example 5, 3-((5-phenyl-1,3,4-oxadiazol-2-yl)methyl)quinolin-2(1H)-one]: the EC50 worked out at 42 nM.
`O=c1[nH]c2ccccc2cc1Cc1ccc(OCC2CC2)nc1` [Example 88, 3-((6-(cyclopropylmethoxy)pyridin-3-yl)methyl)quinolin-2(1H)-one]: the EC50 worked out at 1.3 nM.
In the case of `O=c1[nH]c2ccccc2cc1Cc1nnc(Cc2cccnn2)o1` [Example 25] it was 615 nM; in that of `NS(=O)(=O)c1c(Cl)cc(Cc2cc3ccccc3[nH]c2=O)cc1Cl` [Example 71, 2,6-dichloro-4-((2-oxo-1,2-dihydroquinolin-3-yl)methyl)benzenesulfonamide], 3.7 nM.
With `O=c1[nH]c2ccccc2cc1Cc1nnc(-c2cnn[nH]2)o1` [Example 4, 3-((5-(1H-1,2,3-triazol-5-yl)-1,3,4-oxadiazol-2-yl)methyl)quinolin-2(1H)-one] the figure was 77.1 nM; with `CS(=O)(=O)NCc1ncc(Cc2cc3ccccc3[nH]c2=O)cc1Cl` [Example 91, N-((3-chloro-5-((2-oxo-1,2-dihydroquinolin-3-yl)methyl)pyridin-2-yl)methyl)methanesulfonamide], 10.9 nM; with `O=C1OCCN1c1ncc(Cc2cc3ccccc3[nH]c2=O)cc1Cl` [Example 53], 5.6 nM.
As to `C[C@H]1Oc2ccc(Cc3cc4ccccc4[nH]c3=O)cc2NC1=O` (single isomer, unassigned) [Example 142A, 2-methyl-6-((2-oxo-1,2-dihydroquinolin-3-yl)methyl)-2H-benzo[b][1,4]oxazin-3(4H)-one], the EC50 came to 4.4 nM.
In the case of `CC(C)(O)CN1Cc2ccc(Cc3cc4ccccc4[nH]c3=O)cc2C1=O` [Example 94, 3-((2-(2-hydroxy-2-methylpropyl)-3-oxoisoindolin-5-yl)methyl)quinolin-2(1H)-one], the half-maximal effective concentration (EC50) was 29.6 nM.
In the case of `CS(=O)(=O)NCc1ccc(Cc2cc3ccccc3[nH]c2=O)cc1` [Example 73, N-(4-((2-oxo-1,2-dihydroquinolin-3-yl)methyl)benzyl)methanesulfonamide] it was 6.4 nM; in that of `CC1CN(c2ccc(Cc3cc4cnccc4[nH]c3=O)cc2)C(=O)O1` (single isomer, unassigned) [Example 188, (R or S)-5-methyl-3-(4-((2-oxo-1,2-dihydro-1,6-naphthyridin-3-yl)methyl)phenyl)oxazolidin-2-one], 12.3 nM.
